Reference: patent US20130197027A1, “HETEROCYCLYL-AZABICYCLO[3.2.1]OCTANE ANALOGS AS SELECTIVE M1 AGONISTS AND METHODS OF MAKING AND USING SAME” (priority 2010, published 2013)
Changes are numbered by the printed parent chain.

What was measured:
rM1 = target: T1, rM1 (Rattus norvegicus, UniProt P08482); assay: Calcium mobilization assay in CHO-K1 cells stably expressing rat M1 (low throughput, Flexstation II); format: cell-based
T1 construct: host or cells: CHO-K1
T1 sequence (P08482 1-460): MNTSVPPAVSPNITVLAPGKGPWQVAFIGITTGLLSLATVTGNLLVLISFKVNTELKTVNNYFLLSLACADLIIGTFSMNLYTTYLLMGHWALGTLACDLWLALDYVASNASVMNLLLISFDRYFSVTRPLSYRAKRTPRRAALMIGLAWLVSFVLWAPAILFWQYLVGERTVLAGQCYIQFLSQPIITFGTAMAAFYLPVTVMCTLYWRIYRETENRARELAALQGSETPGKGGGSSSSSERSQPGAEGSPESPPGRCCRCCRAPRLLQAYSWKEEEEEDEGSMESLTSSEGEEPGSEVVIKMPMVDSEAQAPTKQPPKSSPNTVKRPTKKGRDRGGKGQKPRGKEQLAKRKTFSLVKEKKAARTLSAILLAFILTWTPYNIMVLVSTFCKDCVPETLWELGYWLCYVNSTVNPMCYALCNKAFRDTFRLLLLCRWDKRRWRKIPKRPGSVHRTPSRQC
Text: (§1) Chinese hamster ovary (CHO-K1) cells stably expressing rat (r) M1 were purchased from the American Type Culture Collection and cultured according to their indicated protocol. CHO cells stably expressing human (h)M2, hM3, and hM5 were described previously (Levey et al., 1991); hM1 and hM4 cDNAs were purchased from Missouri S&T cDNA Resource; rM4 cDNA was provided by T. I. Bonner (National Institutes of Health, Bethesda, Md.). hM1, hM4, and rM4 cDNAs were used to stably transfect CHO-K1 cells purchased from the American Type Culture Collection using Lipofectamine2000. To make stable hM2, hM4 and rM4 cell lines for use in calcium mobilization assays, these cells also were stably transfected with a chimeric G-protein (Gqi5) (provided by B. R. Conklin, University of California, San Francisco) using Lipofectamine 2000. rM1, hM3, and hM5 cells were grown in Ham's F-12 medium containing 10% heat-inactivated fetal bovine serum (FBS), 20 mM HEPES, and 50 μg/mL G418 sulfate. hM2-Gqi5 and hM4-Gqi5 cells were grown in the same medium also containing 500 μg/mL Hygromycin B. Stable rM4-Gqi5 cells were grown in DMEM containing 10% heat-inactivated FBS, 20 mM HEPES, 400 μg/mL G418 sulfate, and 500 μg/mL Hygromycin B. The rat M1 Y381A orthosteric mutant receptor cDNA was generated using the Quik-Change site-directed mutagenesis kit (Stratagene) and verified by sequencing. CHO-K1 cells were stably transfected with this cDNA using Lipofectamine2000 and screened for expression based on calcium mobilization in response to the allosteric M1 agonist N-desmethylclozapine.
For low throughput measurement of agonist-evoked increases in intracellular calcium, CHO-K1 cells stably expressing muscarinic receptors were plated in 100 μL of growth medium at 5×10^4 (rM1, hM3, and hM5) or 6×10^4 cells per well (rM1 Y381A, hM2, and rM4) in Costar 96-well black-walled, tissue culture (TC)-treated, clear-bottom plates (Fisher). Cells were incubated overnight at 37° C. and 5% CO2. The next day, medium was removed from the cells, and they were incubated with 50 μL of 2 μM Fluo-4/acetoxymethyl ester (Invitrogen, Carlsbad, Calif.) prepared as a 2.3 mM stock in DMSO and mixed in a 1:1 ratio with 10% (w/v) Pluronic F-127 and diluted in assay buffer [HBSS (Invitrogen) supplemented with 20 mM HEPES and 2.5 mM probenecid, pH 7.4] for 1 h at 37° C. and 5% CO2. Dye was removed and replaced with 50 μL of assay buffer. For calcium fluorescence measurements, CRCs of compounds (50 μl, 2×) were added 19 s after the beginning of data collection via a Flexstation II (Molecular Devices, Sunnyvale, Calif.). Fluorescence imaging continued for a total of 130 s acquisition time using an excitation wavelength of 488 nm, an emission wavelength of 525 nm, and a cutoff wavelength of 515 nm. All of the peaks of the calcium response were normalized to the response to a maximally effective concentration of ACh (ECmax). These normalized peak calcium response values were fit using GraphPad Prism version 4.0 to a four-parameter logistic equation to determine EC50 values.

hM1 = target: T2, hM1 (Homo sapiens, UniProt P11229); assay: Calcium mobilization assay in CHO-K1 cells stably expressing human M1 (high throughput, FDSS 6000); format: cell-based
T2 construct: host or cells: CHO-K1
T2 sequence (P11229 1-460): T1 sequence (P08482 1-460) with V5A, S254T, S309P, K320R, G337A, V413I
Text: as §1
For high throughput measurement of agonist-evoked increases in intracellular calcium, CHO-K1 cells stably expressing muscarinic receptors were plated in growth medium lacking G418 and hygromycin at 15,000 cells/20 μL/well (hM1, hM2-Gqi5, hM3, hM4-Gqi5, and hM5) in Greiner 384-well black-walled, tissue culture (TC)-treated, clear-bottom plates (VWR). Cells were incubated overnight at 37° C. and 5% CO2. The next day, cells were washed using an ELX 405 (BioTek) with three washes (50 μL) of assay buffer then aspirated to 15 μL. Next, 5 μL of 8 μM Fluo-4/acetoxymethyl ester (Invitrogen, Carlsbad, Calif.) prepared as a 2.3 mM stock in DMSO and mixed in a 1:1 ratio with 10% (w/v) Pluronic F-127 and diluted in assay buffer was added to the wells and the cell plates were incubated for 45 min at 37° C. and 5% CO2. Dye was removed by washing with the ELX 405 (three 50 μL washes of assay buffer) then aspirated to 20 μL. Agonist and compound master plates were formatted in an 11 point CRC format (1:3 dilutions) in 100% DMSO with a starting concentration of 10 mM using the BRAVO liquid handler (Agilent). Test compound CRCs were then transferred to daughter plates ([…]) using the Echo acoustic plate reformatter (Labcyte, Sunnyvale, Calif.) and then diluted into assay buffer (40 μL) to a 2× stock using a Thermo Fisher Combi (Thermo Fisher Scientific, Waltham, Mass.). Calcium flux was measured using the Functional Drug Screening System (FDSS) 6000 (Hamamatsu Corporation, Tokyo, Japan) as an increase in the fluorescent static ratio. 20 μL of Agonist Compounds were applied to cells using the automated system of the FDSS 6000 at 4 s into the 300 s protocol and the data were collected at 1 Hz. Concentration-response curves were generated using a four-parameter logistical equation in XLfit curve fitting software (IDBS, Bridgewater, N.J.) for Excel (Microsoft, Redmond, Wash.) or Prism (GraphPad Software, Inc., San Diego, Calif.).

## CCOC(=O)N1C2CCC1CC(N1CCC[C@@H](NC(=O)OC(C)(C)C)C1)C2 (stereo partly drawn) [Example 1, ethyl 3-((R)-3-((tert-butoxycarbonyl)amino)piperidin-1-yl)-8-azabicyclo[3.2.1]octane-8-carboxylate]
rM1; RM1, read-out: Efficacy (% Max ACh)
  Emax: 74%
rM1; agonist-evoked calcium mobilization, CHO-K1 rM1 cells, read-out: rM1 Potency (EC50)
  EC50: 0.267 µM
hM1; HM1, read-out: Efficacy (% Max ACh)
  Emax: 29%
hM1; agonist-evoked calcium mobilization, CHO-K1 hM1 cells, read-out: hM1 Potency (EC50)
  EC50: 2 µM
